# From patent US8614091B2, “PNMT as a novel marker for progenitor cells” (priority 2004, dated 2013)
# “Also recorded” adds a separate entry of the source.
# Assays:
# Dbh-/- embryos = settings: DOPS in the maternal drinking water; cited from earlier work
# [1] = test system: neonatal rat cardiomyocytes; test: Beating rate measurements in cultured neonatal rat cardiomyocytes; format: cell-based; settings: for decrease in the beating rate: acute, spontaneously beating cultures after 7 d; for effect on beating rate, acute treatment: increasing concentrations, within seconds to 1-2 min after drug application, normal serum
# Description: D) Preparation of rat neonatal cardiomyocyte cultures. […] The heart was immediately removed under aseptic conditions and placed in ice-cold sterile HBSS (no Ca^++ or Mg^++). Enzymatic and mechanical dissociation of cardiomyocytes was then performed using the Neonatal Cardiomyocyte Isolation System supplied by Worthington Biochemicals (Freehold, N.J., U.S.A.). The hearts were minced on ice and digested overnight at 4° C. with purified trypsin (10 μg/mL) in HBSS. On the following morning, the digested tissue was transferred to a 50-mL conical tube and purified soybean trypsin inhibitor (40 μg/mL) was added to terminate trypsinization. The tissue was oxygenated and warmed to 37° C. […] C. with intermittent gentle swirling. Mild trituration was then used to mechanically dissociate the digested tissue, and single-cell suspensions were obtained by filtering this digested material through 70 μm sterile mesh filters. The cells were collected by low-speed centrifugation. The supernatant was discarded and the cell pellet resuspended in DMEM (high glucose, Biofluids, Rockville, Md., U.S.A.) culture medium containing 10% defined iron-supplemented bovine calf serum (Hyclone Laboratories, Logan, Utah, U.S.A.), 2 mM glutamine, and gentamicin sulfate (50 μg/mL). In some experiments, the serum was pretreated with charcoal before adding it to the media (10% volume as above) to remove possible trace amounts of catecholamines that may have been present The cells were then “preplated” to remove fibroblasts, and the remaining cells counted and seeded onto multi-well culture plates at a density of 75,000 cells per cm^2. The media was changed every 2-3 d beginning the day after seeding. Bromodeoxyuridine (0.1 mM) was added to the culture media for the first 3 d to further minimize contamination from fibroblasts.
# E) Beating rate measurements. Beating activity of cultured cardiomyocytes was measured by edge-detection using photodiode sensors attached to a monitor screen depicting beating cells viewed by videomicroscopy. […] The photodiode sensor signal was filtered with an 8-pole Bessel low-pass filter (Model 900CT, Frequency Devices, Inc., Havervill, Mass., U.S.A.) with a cutoff frequency of 1000 Hz, and relayed to a PC equipped with a National Instruments data acquisition board and LabView 4.0 processing software. Parallel outputs were also directed to a Gould TA550 chart recorder and an oscilloscope. Data were continuously acquired and stored to disk for later analysis. Drugs were added and immediately mixed in the media overlying the cells in each well. Predrug (baseline) measurements were performed first, and the indicated drug(s) were added as a 100× stock to the preexisting media on each well, and rapidly mixed. Beating rates were remeasured within 2-3 min after drug addition.
# F) Data analysis. The number of beating rate measurements was typically obtained from different wells of multi-well plates (usually six wells per plate), seeded from the same preparation of myocytes. Measurements were obtained immediately before and after the addition of specified drugs. In the reserpine experiment, beating rate measurements were obtained at multiple time-points after drug administration. Each experiment was replicated at least twice using independently isolated cultures, and a representative result from each is shown. Unless otherwise indicated, all beating rate measurements were performed on cells that had been cultured for 7-9 d. All data are expressed as mean.+−.SEM. Statistical significance was assessed by one-way ANOVA, with p<0.05 required to reject the null hypothesis. Posthoc testing was performed using Bonferroni's correction for multiple comparisons.
smiles,measurement,setting,value
N[C@H](C(=O)O)[C@H](O)c1ccc(O)c(O)c1 [DOPS],rescue of Dbh-/- embryos that die of cardiovascular failure in utero,Dbh-/- embryos,rescued
CNC[C@H](O)c1cccc(O)c1 [L-phenylephrine],reversal of prazosin-induced decrease in beating rate,"[1]; L-phenylephrine at increasing concentrations, in presence of prazosin 1 μM, charcoal-stripped serum",dose-dependent reversal; also recorded: reversed
CNC[C@H](O)c1ccc(O)c(O)c1 [epinephrine],rescue of timolol-suppressed beating rate in charcoal-stripped serum media,[1]; epinephrine 1 μM added in presence of timolol 10 μM,fully rescued; also recorded: full recovery of beating rate
same,duration of recovery of beating rate,"[1]; epinephrine 1 μM in presence of timolol 10 μM, charcoal-stripped serum",30 to 60 min
NC[C@H](O)c1ccc(O)c(O)c1 [norepinephrine],reversal of reserpine-induced decrease in beating rate,"[1]; NE 1 μM, about 2 min after addition, after 8 h of reserpine 2.5 μM",largely reversed
COc1cc2nc(N3CCN(C(=O)c4ccco4)CC3)nc(N)c2cc1OC [prazosin],decrease in the beating rate,[1]; 1 μM prazosin,~25%
same,decrease in the beating rate,[1]; 10 μM prazosin,> 85%
same,"effect on beating rate, acute treatment",[1],dose-dependent decreases in the beating rate
same,effect on beating rate in media with charcoal-stripped serum,[1]; prazosin 1 μM vs baseline control,significant decreases in beating rates; also recorded: significant reduction in the beating rate
COC(=O)[C@H]1[C@H]2C[C@@H]3c4[nH]c5cc(OC)ccc5c4CCN3C[C@H]2C[C@@H](OC(=O)c2cc(OC)c(OC)c(OC)c2)[C@@H]1OC [reserpine],"effect on beating rate, catecholamine depletion","[1]; increasing concentrations of reserpine, measured up to 8 h",Significant dose-dependent decreases in beating rates
CC(C)(C)NC[C@H](O)COc1nsnc1N1CCOCC1 [timolol],"effect on beating rate, acute treatment",[1],significant concentration-dependent slowing in the beating rate
same,effect on beating activity in media with charcoal-stripped serum,"[1]; timolol 10 μM, continuous, assessed at 24 and 72 h",strongly suppressed beating activity
